Test results: US8895756B2, “Bendamustine pharmaceutical compositions” (priority 2005, dated 2014)
Like-named read-outs stand apart in the source and are kept apart here.

How the values were obtained:
[1] = for Bendamustine solubility: 5° C.
Method: (§1) Samples were then refrigerated at 5° C. and inspected after 0, 3, 6 and 24 hours for particulates and/or precipitates.

[2] = reconstituted with 40 mL Sterile Water for Injection, cited from earlier work
[3] = Fisher esterification conditions: formation of t-butyl ester of bendamustine in TBA; assay type: physicochemical; settings: heated in 60° C. TBA with HCl for 20 hours
Method: Experiments were performed using traditional Fisher esterification reaction conditions required for the formation of t-butyl ester of bendamustine. Bendamustine was heated in 60° C. TBA with HCl for 20 hours.

physchem = settings: 5 °C
Method: as §1

[4] = 10% (v/v) methanol in water with 25.5 mg/mL mannitol, aqueous with cosolvent or surfactant or cyclodextrin
[5] = alcohol/water solution with mannitol 25.5 mg/mL, aqueous with cosolvent or surfactant or cyclodextrin
[6] = alcohol/water solution with mannitol 25.5 mg/mL, aqueous with cosolvent or surfactant or cyclodextrin, thermodynamic from solid
[7] = alcohol/water solution with mannitol, aqueous with cosolvent or surfactant or cyclodextrin
[8] = alcohol/water solution with mannitol, aqueous with cosolvent or surfactant or cyclodextrin, thermodynamic from solid
[9] = alcohol/water solution with mannitol, water, thermodynamic from solid
[10] = water with mannitol 25.5 mg/mL, water, thermodynamic from solid

For Cl.Cn1c(CCCC(=O)O)nc2cc(N(CCCl)CCCl)ccc21 [bendamustine, 4-{5-[Bis(2-chloroethyl)amino]-1-methyl-2-benzimidazolyl}butyric acid], the Bendamustine solubility ([1]; 0% (Water Only), 6 Hours) was “Precipitate”, the Bendamustine solubility ([1]; 0% (Water Only), 24 Hours) was “Precipitate” and the precipitation ([1]; 15 mg/mL bendamustine, 5% and 10% ethanol and TBA without mannitol, over 24 hours) was “did not precipitate”. The Bendamustine solubility ([1]; 1.9% Ethanol (v/v), 6 Hours) was “Precipitate”, the Bendamustine solubility ([1]; 1.9% Ethanol (v/v), 24 Hours) was “Precipitate” and the Bendamustine solubility ([1]; 5% Ethanol (v/v), 6 Hours) was “Precipitate”. For the same molecule, the Bendamustine solubility ([1]; 5% Ethanol (v/v), 24 Hours) was “Precipitate”, the Bendamustine solubility ([1]; 5% Iso-propanol (v/v), 3 Hours) was “Precipitate” and the Bendamustine solubility ([1]; 5% Iso-propanol (v/v), 6 Hours) was “Precipitate”. The Bendamustine solubility ([1]; 5% Iso-propanol (v/v), 24 Hours) was “Precipitate”, the Bendamustine solubility ([1]; 5% Methanol (v/v), 6 Hours) was “Precipitate” and the Bendamustine solubility ([1]; 5% Methanol (v/v), 24 Hours) was “Precipitate”. For the same molecule, the Bendamustine solubility ([1]; 5% Tert-Butanol (v/v), 24 Hours) was “Precipitate”, the Bendamustine solubility ([1]; 5% n-Propanol (v/v), 24 Hours) was “Precipitate” and the Bendamustine solubility ([1]; 10% Ethanol (v/v), 24 Hours) was “Precipitate”. The Bendamustine solubility ([1]; 10% Methanol (v/v), 24 Hours) was “Precipitate”, the Bendamustine solubility ([1]; 10% Tert-Butanol (v/v), 24 Hours) was “Precipitate” and the Bendamustine solubility ([1]; 20% Methanol (v/v), 24 Hours) was “Precipitate”. For the same molecule, the Bendamustine solubility ([1]; 20% n-Butanol (v/v), 3 Hours) was 2 layers, the Bendamustine solubility ([1]; 20% n-Butanol (v/v), 6 Hours) was 2 layers and the Bendamustine solubility ([1]; 20% n-Butanol (v/v), 24 Hours) was 2 layers. For the same molecule, the Bendamustine solubility ([1]; 20% n-Butanol (v/v), Zero Time) was 2 layers, the Bendamustine solubility ([1]; 30% n-Butanol (v/v), 3 Hours) was 2 layers and the Bendamustine solubility ([1]; 30% n-Butanol (v/v), 6 Hours) was 2 layers. The Bendamustine solubility ([1]; 30% n-Butanol (v/v), 24 Hours) was 2 layers, the Bendamustine solubility ([1]; 30% n-Butanol (v/v), Zero Time) was 2 layers and the “stable period after reconstitution” value ([2]; room temperature storage) was 7 h. The “stable period after reconstitution” value ([2]; storage at 2-8° C.) was 140 h, the “formation of t-butyl ester” value [3] was “No reaction was observed” and the solubility at 0 h (physchem; [4]) was greater than 15 mg/mL. It also gave a solubility at 3 h (physchem; [4]) greater than 15 mg/mL, a solubility at 6 h (physchem; [4]) greater than 15 mg/mL and a solubility at 0 h (physchem; [5]) greater than 15 mg/mL. For the same molecule, the solubility at 3 h (physchem; [5]) was greater than 15 mg/mL, the solubility at 6 h (physchem; [5]) was greater than 15 mg/mL and the solubility at 24 h (physchem; [5]) was greater than 15 mg/mL. It also gave a solubility at 0 h (physchem; [6]) greater than 15 mg/mL, a solubility at 3 h (physchem; [6]) greater than 15 mg/mL and a solubility at 6 h (physchem; [6]) greater than 15 mg/mL. It also gave a solubility at 24 h (physchem; [6]) greater than 15 mg/mL, a solubility at 0 h (physchem; [7]) greater than 15 mg/mL and a solubility at 3 h (physchem; [7]) greater than 15 mg/mL. It also gave a solubility at 6 h (physchem; [7]) greater than 15 mg/mL, a solubility at 24 h (physchem; [7]) greater than 15 mg/mL and a solubility at 0 h (physchem; [8]) greater than 15 mg/mL. It also gave a solubility at 3 h (physchem; [8]) greater than 15 mg/mL, a solubility at 6 h (physchem; [8]) greater than 15 mg/mL and a solubility at 24 h (physchem; [8]) greater than 15 mg/mL. For the same molecule, the solubility at 0 h (physchem; [9]) was greater than 15 mg/mL, the solubility at 3 h (physchem; [9]) was greater than 15 mg/mL and the solubility at 0 h (physchem; [10]) was greater than 15 mg/mL. For the same molecule, the solubility at 3 h (physchem; [10]) was greater than 15 mg/mL.
